Data taken from article PMC8494917 (2021).

Columns and labels:
[1] = tested on: Bs-preQ1-RS (RNA, riboswitch) AGAGGUUCUAGCUACACCCUCUAUAAAAAACUAA; assay: UV photocrosslinking, denaturing PAGE; conditions: 100 mM K+, 2 mM Mg2+, 50 mM Tris pH 7.5, 5% DMSO, room temperature, 5 µM RNA, 250 µM compound, covalent
[2] = tested on: Ss-preQ1-RS (RNA, riboswitch) AGAGGUUCCUAGCUGAUACCCUCUAUAAAAAACUA; assay: UV photocrosslinking, MALDI-TOF; conditions: 100 mM K+, 2 mM Mg2+; 10 µM RNA, 500 µM compound; covalent
[3] = tested on: Ss-preQ1-RS (RNA, riboswitch) AGAGGUUCCUAGCUGAUACCCUCUAUAAAAAACUA; assay: competition of photocrosslinking, PAGE; conditions: 100 mM K+, 2 mM Mg2+; 50 mM Tris pH 7.5; probe 11 (250 µM) displaced by 125-1250 µM PreQ1
[4] = tested on: Bs-preQ1-RS full length (RNA, riboswitch) GCGGGAGAGGUUCUAGCUACACCCUCUAUAAAAAACUAGGACGAGCUGUAUCCUUGGAUACGGCCUUUU; assay: competition of photocrosslinking, TAMRA click labelling, PAGE; conditions: 100 mM K+, 2 mM Mg2+; probe 11 (250 µM) displaced by 500-1000 µM PreQ1, in MCF-7 total RNA
[5] = tested on: Cy5-Bs-preQ1-RS (RNA, riboswitch) AGAGGUUCUAGCUACACCCUCUAUAAAAAACUAA; assay: microscale thermophoresis; conditions: 100 mM K+, 2 mM Mg2+, 50 mM Tris-HCl pH 7.5, 5% DMSO, room temperature, 100 nM RNA
[6] = tested on: Cy5-Tt-preQ1-RS (RNA, riboswitch) CUGGGUCGCAGUAACCCCAGUUAACAAAACAAG; assay: microscale thermophoresis; conditions: 100 mM K+, 2 mM Mg2+, 50 mM Tris-HCl pH 7.5, 5% DMSO, room temperature, 100 nM RNA
[7] = tested on: Ss-preQ1-RS (RNA, riboswitch) AGAGGUUCCUAGCUGAUACCCUCUAUAAAAAACUA; assay: UV photocrosslinking, denaturing PAGE; conditions: 100 mM K+, 2 mM Mg2+; 50 mM Tris pH 7.5, room temperature; 5 µM RNA, 25-250 µM compound; covalent
[8] = tested on: Tt-preQ1-RS(G5A) (RNA, riboswitch) CUGGAUCGCAGUAACCCCAGUUAACAAAACAAG; assay: UV photocrosslinking, denaturing PAGE; conditions: 100 mM K+, 2 mM Mg2+; 50 mM Tris pH 7.5; 10 µM RNA, 500 µM compound; covalent; similar to wild type
[9] = tested on: miR21-hp (RNA, miRNA) GGGUUGACUGUUGAAUCUCAUGGCAACCC; assay: UV photocrosslinking, denaturing PAGE; conditions: 100 mM K+, 2 mM Mg2+; 50 mM Tris pH 7.5; 50:1 compound:RNA; covalent crosslink not detected
[10] = tested on: Tt-preQ1-RS (RNA, riboswitch) CUGGGUCGCAGUAACCCCAGUUAACAAAACAAG; assay: X-ray crystallography, 2.80 Å; conditions: without photocrosslinking
[11] = tested on: Bs-preQ1-RS full length (RNA, riboswitch) GCGGGAGAGGUUCUAGCUACACCCUCUAUAAAAAACUAGGACGAGCUGUAUCCUUGGAUACGGCCUUUU; assay: UV photocrosslinking, TAMRA click labelling, PAGE; conditions: 100 mM K+, 2 mM Mg2+; 50 mM Tris pH 7.5, 5% DMSO; 1 µM RNA, 250 µM compound; covalent
[12] = tested on: Tt-preQ1-RS(G11A) (RNA, riboswitch) CUGGGUCGCAAUAACCCCAGUUAACAAAACAAG; assay: UV photocrosslinking, denaturing PAGE; conditions: 100 mM K+, 2 mM Mg2+; 50 mM Tris pH 7.5; 10 µM RNA, 500 µM compound; covalent; similar to wild type
[13] = tested on: SAM-II-WT-RS (RNA, riboswitch) UCGCGCUGAUUUAACCGUAUUGCAAGCGCGUGAUAAAUGUAGCUAAAAAGGG; assay: UV photocrosslinking, denaturing PAGE; conditions: 100 mM K+, 2 mM Mg2+; 50 mM Tris pH 7.5; 50:1 compound:RNA; covalent crosslink not detected
[14] = tested on: Tt-preQ1-RS (ab 13_14) (RNA, riboswitch, abasic at 13 and 14) CUGGGUCGCAGUNNCCCCAGUUAACAAAACAAG; assay: X-ray crystallography, 1.57 Å; conditions: without photocrosslinking
[15] = tested on: Tt-preQ1-RS(G4A) (RNA, riboswitch) CUGAGUCGCAGUAACCCCAGUUAACAAAACAAG; assay: UV photocrosslinking, denaturing PAGE; conditions: 100 mM K+, 2 mM Mg2+; 50 mM Tris pH 7.5; 10 µM RNA, 500 µM compound; covalent; about 40% less than wild type

In the case of `Nc1nc2[nH]cc(CNCCOCCOCCNCc3ccc(C4(C(F)(F)F)N=N4)cc3)c2c(=O)[nH]1`, the “% Crosslink efficiency” value [1] is reported as 22.0 ± 2.2%.
For `Nc1nc2[nH]cc(CNCCOCCOCCOCCNCc3ccc(C4(C(F)(F)F)N=N4)cc3)c2c(=O)[nH]1`, the “% Crosslink efficiency” value [1] was 19.4 ± 4.4%.
For `Nc1nc2[nH]cc(CNCc3ccc(C4(C(F)(F)F)N=N4)cc3)c2c(=O)[nH]1`, the binding ([1]; trace only) was “weak”.
In the case of `CC1(CCC(=O)NCc2c[nH]c3nc(N)[nH]c(=O)c23)N=N1`, the “% Crosslink efficiency” value [1] is reported as 49.2 ± 3.2%.
`C#CCCC1(CCC(=O)NCc2c[nH]c3nc(N)[nH]c(=O)c23)N=N1` was tested, and the “% Crosslink efficiency” value [1] was 39.9 ± 5.3%.
With `Nc1nc2[nH]cc(CNCCC3(CCc4cn(CCOCCOCCOCCNC(=O)CCCC[C@@H]5SC[C@@H]6NC(=O)N[C@@H]65)nn4)N=N3)c2c(=O)[nH]1` the binding [2] was “yes”.
With `NCc1c[nH]c2nc(N)[nH]c(=O)c12` the binding [3] was “yes”, the binding [4] was “yes” and the apparent dissociation constant [5] was 0.243 ± 0.01639 µM. For the same compound, the apparent dissociation constant [6] was 0.193 ± 0.04523 µM.
With `C#CCCC1(CCNCc2c[nH]c3nc(N)[nH]c(=O)c23)N=N1` the binding [7] was “yes”, the apparent dissociation constant ([5]; about 50 x K of PreQ1) was 8.25 ± 2.56 µM and the binding [8] was “yes”. For the same compound, the binding [9] was “no”, the binding [10] was “yes” and the binding [11] was “yes”. The binding [12] was “yes”, the binding [13] was “no” and the binding [14] was “yes”. The binding [15] was “yes”, the “% Crosslink efficiency” value [1] was 31.3 ± 2.9% and the apparent dissociation constant ([6]; about 50 x K of PreQ1) was 11.03 ± 2.98 µM.
